Patent US20220268691A1, “MICROSCOPE ADAPTOR AND SAMPLE MOUNT FOR MAGNETICALLY ACTUATING SAMPLE” (University of Southern California, priority 2021, published 2022)

What was measured:
[1] = test system: PDAC; conditions: GEM-based treatments; pancreatic cancer patients; cited from earlier work
[2] = test system: Pancreatic spheroids; test: Magnetogel toxicity study (viability of pancreatic spheroids in M-gel); assay type: cell-based; conditions: M-gel/cells treated with 10 μL of gemcitabine; 96-well culture plate; sextuplet
Procedure: Pancreatic spheroids were grown on a 96-well culture plate. All measurements were performed in sextuplet (6×). The viability from these wells was compared against two controls: Matrigel/cells only, and M-gel/cells treated with 10 μL of gemcitabine (GEM), a common chemotherapeutic agent (as shown in FIG. 2B).

## Nc1ccn([C@@H]2O[C@H](CO)[C@@H](O)C2(F)F)c(=O)n1 [GEM, gemcitabine]
[1]
  response to treatment observed in patients: 37 % of patients
[2]
  viability of cells (GEM control): cells killed
